The text below walks through data of patent US10617664B2, “Brain derived PPARα ligands” (Rush University Medical Center, priority 2015, dated 2020).

Holding throughout (assay type): cell-based, mouse
Assay [1] concerns PPRE-driven luciferase activity. The experiment in a line: PPRE-luciferase assay in Ppara-null astrocytes transduced with Ppara constructs. To be noted: Ppara-null astrocytes (empty vector). The protocol:
Astrocytes plated at 60-70% confluence were transfected with tk-PPREx3-Luc, a PPRE-dependent luciferase reporter construct. After 24 h of transfection, cells were treated with different concentrations of HEX (FIG. 10A), OCT (FIG. 10B) and HMB (FIG. 10C) for 4 h followed by monitoring luciferase activity. Under similar experimental condition, MTT was performed to understand the effect of these ligands on cell viability (FIG. 10D, HEX; FIG. 10E, OCT; FIG. 10F, HMB). Results are mean±SD of three independent experiments. ^ap<0.001 vs. control. Ppara-null astrocytes were transduced with lentivirions containing empty vector (FIG. 10G), FL-Ppara (FIG. 10H), Y314D-Ppara (FIG. 10I), Y464D-Ppara (FIG. 10J), and Y314D/Y464D-Ppara (FIG. 10K) for 48 h followed by transfection with tk-PPREx3-Luc. After 24 h of transfection, cells were treated with different doses of HEX, OCT and HMB for 4 h followed by monitoring luciferase activity. PPRE luciferase activity was assayed in Ppara-null astrocytes transduced with lentivirions containing empty vector (FIG. 10L), FL-Ppara (FIG. 10M), Y314D-Ppara (FIG. 10N), Y464D-Ppara (FIG. 10O), and Y314D/Y464D-Ppara (FIG. 10P) after treatment with different doses of WY14643, fenofibrate, and clofibrate. PPRE luciferase activity was assayed in primary hippocampal neurons transduced with lentivirions containing empty vector (FIG. 10Q), FL-Ppara (FIG. 10R), Y314D-Ppara (FIG. 10S), Y464D-Ppara (FIG. 10T), and Y314D/Y464D-Ppara (FIG. 10U) after treatment with different doses of HEX, OCT and HMB. Results are mean±SD of three independent experiments. ^ap<0.001 vs. control.

In assay [2] the test system is Ppara-null hippocampal neurons. The experiment in a line: Dendritic spine density (phalloidin) in transduced Ppara-null hippocampal neurons. To be noted: lenti-FL-Ppara. The protocol:
Ppara-null hippocampal neurons were transduced with lentivirions containing GFP (vector), FL-Ppara, and Y464D-Ppara for 48 h followed by treatment with vehicle (DMSO) (FIG. 11A), OCT (FIG. 11B), HEX (FIG. 11C), HMB (FIG. 11D), and WY14643 (FIG. 11E) for 24 h. Then neurons were stained for phalloidin to measure spine density. FIG. 11F) A representative picture of dendrite with spines (Cyan color) used for counting area of spine heads. Area of spine heads (FIG. 11G) and number of spines (FIG. 11H) in 10 μm of dendrites. Results are mean±SEM of 5 neurons per group. ^ap<0.05 vs vector only; ^bp<0.05 vs FL-Ppara. AMPA-driven calcium influx was measured in OCT (red), HEX (green) and HMB (purple)-treated Ppara-null hippocampal neurons transduced with lentivirions containing FL-Ppara (FIG. 11I), Y314D-Ppara (FIG. 11J), Y464D-Ppara (FIG. 11K), and Y314D/Y464D-Ppara (FIG. 11L). All neurons were treated with 50 μM of NMDA receptor antagonist N20C to inhibit passive calcium flow through NMDA receptor. (FIG. 11M-P) Similarly NMDA-driven calcium influx was measured in the lentivius-infected Ppara-null hippocampal neurons in the presence of different endogenous ligands. In these cases, Naspm-HCl was treated to stop the passive flow of calcium currents through AMPA receptor. Results are mean of three independent experiments.
Dendritic spines are the crucial mediators of synaptic transmission among central neurons and often serve as a primary candidate for the long term morphological substrates of neuronal plasticity^12,13. Therefore, the effect of these ligands on the increase of spine density in cultured hippocampal neurons was studied. Briefly, mouse Ppara-null hippocampal neurons were transduced with lentivirus containing empty vector, FL-Ppara, or Y464D-Ppara for a week followed by the treatment with OCT, HEX, and HMB for four more days. After that, neurons were labelled with phalloidin to monitor the spine density. […] This observation was further validated by measuring the area of spine heads (FIG. 11F-G) and number of spines (FIG. 11H) in HEX, OCT, and HMB-treated Ppara-null neurons. HEX (FIG. 17G-H), OCT (FIG. 17I-J) and HMB (FIG. 17K-L) stimulated the expression of CREB in Ppara-null hippocampal neurons that were transduced with lentivirons containing the FL-Ppara gene.
Hippocampal regions were dissected from 18-day-old embryonic fetus as described elsewhere (PMID: 25007337), combined and plated in poly-D-lysine coated plate for another 2-3 weeks for branching. After that, these neurons were transduced with GFP-containing lentivirions for 2 d. Neurons were stained with Dylight-554-conjugated phalloidin (Cat #21834; Thermofisher) as per manufactures protocol and visualized in fluorescence microscope. […]

Assay [3] has as its system PPRE-driven luciferase activity. The experiment in a line: PPRE-luciferase assay in Pparb-null astrocytes with PPARγ antagonist GW9662. To be noted: Pparb-null astrocytes. The protocol:
FIG. 16A) Pparb-null primary astrocytes plated at 60-70% confluence in 12-well plates were transfected with 0.25 μg of tkPPREx3-Luc (a PPRE-dependent luciferase reporter construct). Twenty-four hours after transfection, cells were treated with different concentrations of GW9662 for 30 min followed by stimulation with rosiglitazone. After 4 h, luciferase activities were assayed. […] After transfection, cells were also treated with GW9662 followed by stimulation with OCT (FIG. 16B), HEX (FIG. 16C) and HMB (FIG. 16D).
These astrocytes were pre-treated with PPARγ-antagonist GW9662 to nullify the involvement of PPARγ in reporter assay.

Structures are written as SMILES.

As to `Cc1cccc(Nc2cc(Cl)nc(SCC(=O)O)n2)c1C` [WY14643, reference compound], the PPRE-driven luciferase activity result in assay [1] was “unable to induce”. The density of spines result in assay [2] is “stimulated”.
For `O=C(Nc1ccccc1)c1cc([N+](=O)[O-])ccc1Cl` [GW9662, reference compound], in assay [3], the “effect on rosiglitazone-mediated increase in PPRE-luciferase activity” value was “Inhibition”.
